Data reported in patent EP4644375A1, “SUBSTITUTED HYDROQUINOLINES FOR THE TREATMENT OF GLIOBLASTOMA MULTIFORME” (Molius Saglik Teknolojileri Anonim Sirketi, priority 2024, dated 2025).
Each block holds one compound with its values, some of them ahead of it.

Key:
[1] = system: U138-MG human glioma cell; experiment: Cell proliferation analysis (MTT); assay type: cell-based; settings: MTT; for activity at 10 µM / inhibition at 10 µM: Homo sapiens, 48 h, two days
U87-MG human glioma cell = experiment: Cell proliferation analysis (MTT); assay type: cell-based; settings: MTT; for activity at 10 µM / inhibition at 10 µM: Homo sapiens, U-87 MG, 48 h, two days
[2] = PAMPA permeability assay, gastrointestinal mimicking membrane; settings: 500 µM, 18 hours, 37 °C
Description: Permeability assay and analyses were performed according to the manufacturer's instructions. […] After the loading of lipid solutions into the pores, all drug solutions and the permeability controls were put onto the lipid membrane in donor wells. The permeability assay was performed for 18 hours at 37 °C incubator. All samples were collected from acceptor wells after the incubation period was finished and the absorbance values were measured with equilibrium standards for normalization.

[3] = In vivo GBM rat model: body weight; settings: treated GBM rats compared to the GBM rats, 30 mg/kg oral, 5 days
Description: An in Vivo study was performed to assess the therapeutic potential of TR-G002, TR-G045, TR-G053, TR-G066, TR-G071 and TR-G091 in the GBM xenograft rat model when administered orally by gavage for five consecutive days. 152 female rats of the Sprague Dawley strain were allocated to the study. Six groups of sixteen females were given dose of 30 mg/kg of the respective target compounds. […] The study design can be seen in Fig. 11 and Table 10.
Individual body weights were manually calculated. Group mean body weights; group mean body weight changes and organ weights were also manually calculated without statistical analysis. To determine the density of positive staining from immunohistochemical and immunofluorescence staining images, five randomly selected areas were evaluated using ZEISS Zen Imaging Software. Data were statistically defined as mean and standard deviation (mean ± SD) for the percentage of the area. One-way ANOVA followed by the Tukey test was performed to compare immunoreactive cells and immune-positive stained areas with healthy controls. GraphPad Prism software was used for analysis.

[4] = Peripheral blood micronucleus assay; assay type: in vivo, Rat
Description: Blood smears were made on clean microscope slides, allowed to air-dry, treated with methanol for fixation, and then stained with Giemsa (10% in 0.1 mM of sodium phosphate buffer, pH 6.8) for 10 min. After washing with PBS, the slides were examined under a light microscope. The frequencies of micronuclei (MN) were calculated by evaluating 1000 cells per animal.

[5] = In vivo GBM rat model: plasma chemistry; settings: GBM rats, 30 mg/kg oral, 5 days, plasma at necropsy
Description: (§1) The parameters that were analysed can be seen in Table 11.

[6] = In vivo GBM rat model: haematology
Description: as §1

[7] = GBM rats, 30 mg/kg oral, 5 days, blood at necropsy

SMILES: CN(C(=O)Oc1ccc2c(c1)CCC(=O)N2)c1ccccc1 [TR-G072, 2-oxo-1,2,3,4-tetrahydroquinolin-6-yl methyl(phenyl)carbamate]
activity at 10 µM [1]: 85% | inhibition at 10 µM [1]: 15% | activity at 10 µM (U87-MG human glioma cell): 85% | inhibition at 10 µM (U87-MG human glioma cell): 15% | permeability through the gastrointestinal mimicking membrane [2]: highly permeable

SMILES: Cc1ccc(F)cc1NC(=O)Oc1ccc2c(c1)CCC(=O)N2 [TR-G097, 2-oxo-1,2,3,4-tetrahydroquinolin-6-yl (5-fluoro-2-methylphenyl)carbamate]
activity at 10 µM [1]: 73% | inhibition at 10 µM [1]: 27% | activity at 10 µM (U87-MG human glioma cell): 79% | inhibition at 10 µM (U87-MG human glioma cell): 21% | permeability through the gastrointestinal mimicking membrane [2]: highly permeable

SMILES: C#CCOc1ccc2c(c1)CCC(=O)N2 [TR-G006, 6-(prop-2-yn-1-yloxy)-3,4-dihydroquinolin-2(1H)-one]
activity at 10 µM [1]: 86% | inhibition at 10 µM [1]: 14% | activity at 10 µM (U87-MG human glioma cell): 86% | inhibition at 10 µM (U87-MG human glioma cell): 14% | permeability through the gastrointestinal mimicking membrane [2]: highly permeable

SMILES: Cn1nnc2c(C(N)=O)ncn2c1=O [TMZ, Temozolomide, reference compound]
Inhibition (%) ([1]; reference drugs): 22% | Proliferation (%) ([1]; reference drugs): 78% | Inhibition (%) (U87-MG human glioma cell; reference drugs): 20% | Proliferation (%) (U87-MG human glioma cell; reference drugs): 80% | body weight [3]: No significant change in body weight | MN frequency ([4]; GBM rats, 30 mg/kg oral, 5 days, 1000 cells per animal evaluated): 14.32 ± 3.10 | MN frequency (comparison) ([4]; treated GBM rats): highest observed MN frequency | ALP [5]: 128.7 IU/L | ALT [5]: 42.4 IU/L | AST [5]: 114.63 IU/L | GLU [5]: 311 mg/dL | LDH [5]: 499.85 IU/L | LDL C [5]: 5.12 mmol/L | TG [5]: 111 mg/dL | HCT [6, 7]: 48.13% | HGB [6, 7]: 15.13 g/dL | MCH [6, 7]: 18.10 pg | MCHC [6, 7]: 31.47 g/dL | MCV [6, 7]: 57.55 fL | PLT [6, 7]: 829.67 10^9 /L | RBC [6, 7]: 8.36 10^12/L | WBC [6, 7]: 4.92 10^9/L | PLT levels ([6]; compared to GBM rats): no significant changes | WBC level ([6]; compared to the GBM rats): did not cause any significant changes

Now from value to compound, other results behind:

permeability through the gastrointestinal mimicking membrane [2]: highly permeable
SMILES: O=C(COc1ccc2c(c1)CCC(=O)N2)NN=Cc1cccs1 [TR-G024, 2-((2-oxo-1,2,3,4-tetrahydroquinolin-6-yl)oxy)-N'-(thiophen-2-ylmethylene)acetohydrazide]
activity at 10 µM [1]: 70% | inhibition at 10 µM [1]: 30% | activity at 10 µM (U87-MG human glioma cell): 80% | inhibition at 10 µM (U87-MG human glioma cell): 20%

permeability through the gastrointestinal mimicking membrane [2]: highly permeable
SMILES: C=CCOc1ccc2c(c1)CCC(=O)N2 [TR-G014, 6-(allyloxy)-3,4-dihydroquinolin-2(1H)-one]
activity at 10 µM [1]: 51% | inhibition at 10 µM [1]: 49% | activity at 10 µM (U87-MG human glioma cell): 82% | inhibition at 10 µM (U87-MG human glioma cell): 18%

permeability through the gastrointestinal mimicking membrane [2]: highly permeable
SMILES: O=C(COc1ccc2c(c1)CCC(=O)N2)N/N=C/c1ccc(F)cc1 [TR-G128, (E)-N'-(4-fluorobenzylidene)-2-((2-oxo-1,2,3,4-tetrahydroquinolin-6-yl)oxy)acetohydrazide]
activity at 10 µM [1]: 68% | inhibition at 10 µM [1]: 32% | activity at 10 µM (U87-MG human glioma cell): 68% | inhibition at 10 µM (U87-MG human glioma cell): 32%
